Experimental findings from patent EP0148075A2, “Anti-PGE specific monoclonal antibodies, their preparation and their biological applications” (INSTITUT PASTEUR, priority 1983, dated 1985) are described below.

The structures appear in SMILES notation.

Holding throughout (format): binding, souris
Assay [1] deals with anticorps monoclonal anti-PG E2 secrété par les hybridomes 42-61-48 (CNCM 1-255), type IgG Cb Kapa. Briefly: competition radioimmunoassay (affinity by Scatchard plot, specificity by displacement of tritiated PG E2). The settings on record: 12 h at 4°C; for quantité qu'il faut pour déplacer 2,5 pg de PG E2 tritiée liée à l'anticorps: competition with tritiated PG E2. The protocol:
(§1) 'L'affinité des anticorps est étudiée en effectuant un essai radio-immunologique dit de compétition; on détermine l'importance relative de la fixation de PG E marquée au tritium et non marquée sur les anticorps monoclonaux à étudier pour des mélanges de ces PG E en quantités données; Pour cela, on fait incuber 12 heures à 4°C des quantités croissantes de PG E non marquée avec une dilution du surnageant de chaque puits dans lequel se développent des clones secréteurs, en présence de 10 pg de la même PG E mais tritiée; on calcule la dilution pour que 50% de la PG E tritiée se fixe sur les anticorps présents; les résultats obtenus sont représentés selon une courbe de Scatchard, d'où l'on déduit, de façon connue, la constante d'association de l'anticorps monoclonal à la PG E qui traduit l'affinité des anticorps pour leur antigène. La méthode de calcul de la constante d'association est décrite notamment dans Ann. N.Y. Acad. Sci.5l, p.660-672 (1949).
(§2) La spécificité des anticorps est étudiée en effectuant le même type d'essai radioimmunologique de compétition lors de la fixation sur l'anticorps monoclonal anti-PG E à étudier, mais la compétition a lieu entre la PG E tritiée correspondant à l'anticorps préparé et d'autres prostaglandines.
(§3) On mesure l'affinité et la spécificité des anti-corps secrétés dans le surnageant, par les méthodes radio-immunologiques de compétition de liaison précédemment décrites.

For assay [2], the target named is anticorps monoclonal anti-PG E2 secrété par les hybridomes 8E57 (CNCM 1-254). The assay is described as above. To be noted: 12 h at 4°C; for quantité qu'il faut pour déplacer 2,5 pg de PG E2 tritiée de sa liaison à l'anticorps: competition with tritiated PG E2. The method, then:
as §1, §2, §3

The target of assay [3] is anticorps monoclonal anti-PG E2 de la souche 38-200.10 (CNCM I-401), type IgGl Kapa. Kind of assay: competition radioimmunoassay (affinity, Scatchard plot). The settings on record: association constant for PG E2; 720 min; read-out: constante d'affinité (converted). The method, then:
as §1, §3

The target in assay [4] is anticorps monoclonal anti-PG E2 de la souche 42-61-48.46 (CNCM I-402). The assay is described as above. To be noted: association constant for PG E2; 720 min; read-out: constante d'affinité (converted). The protocol: as §1, §3
Assay [5] concerns the target anticorps monoclonal anti-PG E1 de la lignée d'hybridomes 36-F-20 (36F20, CNCM I-403), type IgG 1 Kapa. Described as above. To be noted: association constant for PG E1; 720 min; read-out: constante d'affinité (converted). The method, then:
as §1

The mark [6] stands for this setting: association constant for PG E2, 10 pg tritiated PG E2.

As for `CCCCC[C@H](O)/C=C/[C@H]1[C@H](O)CC(=O)[C@@H]1C/C=C\CCCC(=O)O` [PG E2], the “constante d'affinité Ka” value was 5e+09 M⁻¹ in assay [1] (setting [6]) and 10^10 M^-1 in assay [2] (setting [6]). The “quantité qu'il faut pour déplacer 2,5 pg de PG E2 tritiée liée à l'anticorps” value in assay [1] is recorded as 80 pg. Besides, the “quantité qu'il faut pour déplacer 2,5 pg de PG E2 tritiée de sa liaison à l'anticorps” value in assay [2] stood at 40 pg. Also, the results for the Kd in assay [3] and in assay [4] were 0.11 nM and 0.222 nM, respectively.
With `CCCCC[C@H](O)/C=C/C1=C(C/C=C\CCCC(=O)O)C(=O)CC1` [PG B2], in assay [1], the “quantité qu'il faut pour déplacer 2,5 pg de PG E2 tritiée liée à l'anticorps” value is reported as 500 000 pg. In assay [2], the “quantité qu'il faut pour déplacer 2,5 pg de PG E2 tritiée de sa liaison à l'anticorps” value is > 10 000 pg.
For `CCCCC[C@H](O)/C=C/[C@H]1[C@H](O)CC(=O)[C@@H]1CC(=O)CCCCC(=O)O` [6-céto-PG E1] the same measures were 1000 pg and 350 pg.
In the case of `CCCCC[C@H](O)/C=C/[C@H]1[C@H](O)CC(=O)[C@@H]1CCCCCCC(=O)O` [PG E1], the “quantité qu'il faut pour déplacer 2,5 pg de PG E2 tritiée liée à l'anticorps” value in assay [1] was 350 pg. Also, the “quantité qu'il faut pour déplacer 2,5 pg de PG E2 tritiée de sa liaison à l'anticorps” value in assay [2] is reported as 70 pg. In assay [5], the Kd was 0.05 nM.
Consider `CCCCC[C@H](O)/C=C/[C@@H]1[C@@H](CCCCCCC(=O)O)[C@@H](O)C[C@H]1O` [PG Flalpha], for which, in assay [1], the “quantité qu'il faut pour déplacer 2,5 pg de PG E2 tritiée liée à l'anticorps” value is 40 000 pg.
With `CCCCC[C@H](O)/C=C/[C@H]1C=CC(=O)[C@@H]1C/C=C\CCCC(=O)O` [PG A2], the “quantité qu'il faut pour déplacer 2,5 pg de PG E2 tritiée liée à l'anticorps” value in assay [1] is listed as 50 000 pg. The “quantité qu'il faut pour déplacer 2,5 pg de PG E2 tritiée de sa liaison à l'anticorps” value in assay [2] is on record as over 500 pg.
